Measured values published in patent US8278345B2, “Inhibitors of glutaminyl cyclase” (Probiodrug AG, priority 2006, dated 2012).

biological target: hQC (Homo sapiens, UniProt Q16769); assay: Inhibitor assay for glutaminyl cyclase activity (fluorometric, H-Gln-βNA / H-Gln-AMC); format: biochemical; conditions: compound from preparative synthesis, purified; read-out: IC50 hQC
Description: All measurements were performed with a BioAssay Reader HTS-7000Plus for microplates (Perkin Elmer) at 30° C. QC activity was evaluated fluorometrically using H-Gln-βNA. The samples consisted of 0.2 mM fluorogenic substrate, 0.25 U pyroglutamyl aminopeptidase (Unizyme, Hørsholm, Denmark) in 0.2 M Tris/HCl, pH 8.0 containing 20 mM EDTA and an appropriately diluted aliquot of QC in a final volume of 250 μl. Excitation/emission wavelengths were 320/410 nm. The assay reactions were initiated by addition of glutaminyl cyclase. QC activity was determined from a standard curve of β-naphthylamine under assay conditions. One unit is defined as the amount of QC catalyzing the formation of 1 μmol pGlu-βNA from H-Gln-βNA per minute under the described conditions.
In a second fluorometric assay, QC activity was determined using H-Gln-AMC as substrate. Reactions were carried out at 30° C. utilizing the NOVOStar reader for microplates (BMG labtechnologies). The samples consisted of varying concentrations of the fluorogenic substrate, 0.1 U pyroglutamyl aminopeptidase (Qiagen) in 0.05 M Tris/HCl, pH 8.0 containing 5 mM EDTA and an appropriately diluted aliquot of QC in a final volume of 250 μl. Excitation/emission wavelengths were 380/460 nm. The assay reactions were initiated by addition of glutaminyl cyclase. QC activity was determined from a standard curve of 7-amino-4-methylcoumarin under assay conditions. The kinetic data were evaluated using GraFit sofware.
For inhibitor testing, the sample composition was the same as described above, except of the putative inhibitory compound added. For a rapid test of QC-inhibition, samples contained 4 mM of the respective inhibitor and a substrate concentration at 1 KM. For detailed investigations of the inhibition and determination of Ki-values, influence of the inhibitor on the auxiliary enzymes was investigated first. In every case, there was no influence on either enzyme detected, thus enabling the reliable determination of the QC inhibition. The inhibitory constant was evaluated by fitting the set of progress curves to the general equation for competitive inhibition using GraFit software.

Chain of hQC (Q16769 29-361): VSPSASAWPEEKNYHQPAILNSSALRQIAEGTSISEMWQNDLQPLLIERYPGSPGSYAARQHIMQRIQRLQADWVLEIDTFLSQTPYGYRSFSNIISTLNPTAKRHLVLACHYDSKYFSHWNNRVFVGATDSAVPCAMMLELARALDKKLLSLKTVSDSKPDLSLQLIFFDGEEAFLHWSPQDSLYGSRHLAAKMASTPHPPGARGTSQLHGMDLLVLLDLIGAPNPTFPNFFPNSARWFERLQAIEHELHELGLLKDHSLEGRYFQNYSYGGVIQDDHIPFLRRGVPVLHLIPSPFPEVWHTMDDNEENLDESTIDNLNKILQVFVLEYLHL

Row | Compound | IC50 [nM]
1 | Cc1ccc(C2C(c3ccc(O)cc3)=C(O)C(=O)N2CCCn2ccnc2)cc1 (stereo not shown) [Compound 148, 3-Hydroxy-4-(4-hydroxy-phenyl)-1-(3-imidazol-1-yl-propyl)-5-p-tolyl-1,5-dihydro-pyrrol-2-one] | 152
2 | O=C1C(O)=C(c2c[nH]c3ccccc23)C(C2CCC=CO2)N1CCCn1ccnc1 (stereo not shown) [Compound 128, 5-(3,4-Dihydro-2H-pyran-2-yl)-3-hydroxy-1-(3-imidazol-1-yl-propyl)-4-(1H-indol-3-yl)-1,5-dihydro-pyrrol-2-one] | 804

Next, values leading:

Row | IC50 [nM] | Compound
3 | 740 | O=C1C(O)=C(c2ccccc2)C(c2ccccc2F)N1CCCn1ccnc1 (stereo not shown) [Compound 110, 5-(2-Fluoro-phenyl)-3-hydroxy-1-(3-imidazol-1-yl-propyl)-4-phenyl-1,5-dihydro-pyrrol-2-one]
4 | 613 | CCCCCC1=C(O)C(=O)N(CCCn2ccnc2)C1c1ccc(O)cc1 (stereo not shown) [Compound 218, 3-Hydroxy-5-(4-hydroxy-phenyl)-1-(3-imidazol-1-yl-propyl)-4-pentyl-1,5-dihydro-pyrrol-2-one]

same assay, conditions: read-out: IC50

Row | Compound | IC50 [nM]
5 | O=C(C1=C(O)C(=O)N(c2ccc3[nH]cnc3c2)C1c1ccc(Cl)c(C(F)(F)F)c1)C1CCCCC1 (stereo not shown) [Compound 454, 1-(1H-Benzoimidazol-5-yl)-5-(4-chloro-3-trifluoromethyl-phenyl)-4-cyclohexanecarbonyl-3-hydroxy-1,5-dihydro-pyrrol-2-one] | 2560
6 | O=C(C1=C(O)C(=O)N(c2ccc3[nH]cnc3c2)C1c1ccc(CO)o1)C1CC1 (stereo not shown) [Compound 418, 1-(1H-Benzoimidazol-5-yl)-4-cyclopropanecarbonyl-3-hydroxy-5-(5-hydroxymethyl-furan-2-yl)-1,5-dihydro-pyrrol-2-one] | 310
7 | CCC1=C(O)C(=O)N(CCCn2ccnc2)C1c1ccc(OC)cc1 (stereo not shown) [Compound 229, 4-Ethyl-3-hydroxy-1-(3-imidazol-1-yl-propyl)-5-(4-methoxy-phenyl)-1,5-dihydro-pyrrol-2-one] | 40
8 | CCCCCC1=C(O)C(=O)N(CCCn2ccnc2)C1c1ccc(CO)o1 (stereo not shown) [Compound 198, 3-Hydroxy-5-(5-hydroxymethyl-furan-2-yl)-1-(3-imidazol-1-yl-propyl)-4-pentyl-1,5-dihydro-pyrrol-2-one] | 40
9 | O=C(O)c1ccc(C2C(C(=O)C3CCCCC3)=C(O)C(=O)N2c2ccc3[nH]cnc3c2)o1 (stereo not shown) [Compound 374, 5-[1-(1H-Benzoimidazol-5-yl)-3-cyclohexanecarbonyl-4-hydroxy-5-oxo-2,5-dihydro-1H-pyrrol-2-yl]-furan-2-carboxylic acid] | 760
10 | CC1=C(O)C(=O)N(CCCn2ccnc2)C1c1ccccc1 (stereo not shown) [Compound 34, 3-Hydroxy-1-(3-imidazol-1-yl-propyl)-4-methyl-5-phenyl-1,5-dihydro-pyrrol-2-one] | 1300
11 | O=C1C(O)=C(c2cccc(O)c2)C(c2c[nH]c3ccccc23)N1CCCn1ccnc1 (stereo not shown) [Compound 18, 3-Hydroxy-4-(3-hydroxy-phenyl)-1-(3-imidazol-1-yl-propyl)-5-(1H-indol-3-yl)-1,5-dihydro-pyrrol-2-one] | 9400
12 | CC(C)CC(=O)C1=C(O)C(=O)N(c2ccc3[nH]cnc3c2)C1c1ccco1 (stereo not shown) [Compound 413, 1-(1H-Benzoimidazol-5-yl)-5-furan-2-yl-3-hydroxy-4-(3-methyl-butyryl)-1,5-dihydro-pyrrol-2-one] | 1480
13 | CC1=C(O)C(=O)N(CCCn2ccnc2)C1c1ccco1 (stereo not shown) [Compound 47, 5-(Furan-2-yl-)3-hydroxy-1-(3-imidazol-1-yl-propyl)-4-methyl-1,5-dihydro-pyrrol-2-one] | 400
14 | CCCC(=O)C1=C(O)C(=O)N(c2ccc3[nH]cnc3c2)C1c1ccco1 (stereo not shown) [Compound 353, 1-(1H-Benzoimidazol-5-yl)-4-butyryl-5-furan-2-yl-3-hydroxy-1,5-dihydro-pyrrol-2-one] | 2740
15 | CCCCC1C(c2c[nH]c3ccccc23)=C(O)C(=O)N1CCCn1ccnc1 (stereo not shown) [Compound 141, 5-Butyl-3-hydroxy-1-(3-imidazol-1-yl-propyl)-4-(1H-indol-3-yl)-1,5-dihydro-pyrrol-2-one] | 400
16 | CCC1=C(O)C(=O)N(CCCn2ccnc2)C1c1c[nH]c2ccccc12 (stereo not shown) [Compound 241, 4-Ethyl-3-hydroxy-1-(3-imidazol-1-yl-propyl)-5-(1H-indol-3-yl)-1,5-dihydro-pyrrol-2-one] | 40
17 | CC1=C(O)C(=O)N(CCCn2ccnc2)C1C(F)(F)F (stereo not shown) [Compound 38, 3-Hydroxy-1-(3-imidazol-1-yl-propyl)-4-methyl-5-trifluoromethyl-1,5-dihydro-pyrrol-2-one] | 2200
18 | CCC1=C(O)C(=O)N(CCCn2ccnc2)C1c1ccco1 (stereo not shown) [Compound 247, 4-Ethyl-5-furan-2-yl-3-hydroxy-1-(3-imidazol-1-yl-propyl)-1,5-dihydro-pyrrol-2-one] | 1300
19 | O=C1C(O)=C(c2c[nH]c3ccccc23)C(c2ccc(CO)o2)N1CCCn1ccnc1 (stereo not shown) [Compound 126, 3-Hydroxy-5-(5-hydroxymethyl-furan-2-yl)-1-(3-imidazol-1-yl-propyl)-4-(1H-indol-3-yl)-1,5-dihydro-pyrrol-2-one] | 400
20 | Cc1ccc(C2C(c3ccc(O)cc3)=C(O)C(=O)N2CCCn2ccnc2)cc1 (stereo not shown) [Compound 148, 3-Hydroxy-4-(4-hydroxy-phenyl)-1-(3-imidazol-1-yl-propyl)-5-p-tolyl-1,5-dihydro-pyrrol-2-one] | 40
21 | O=C1C(O)=C(c2c[nH]c3ccccc23)C(C2CCC=CO2)N1CCCn1ccnc1 (stereo not shown) [Compound 128, 5-(3,4-Dihydro-2H-pyran-2-yl)-3-hydroxy-1-(3-imidazol-1-yl-propyl)-4-(1H-indol-3-yl)-1,5-dihydro-pyrrol-2-one] | 40

The remaining compounds from weak to strong by IC50, led by results:

Row | IC50 [nM] | Compound
22 | 7510 | O=C1C(O)=C(c2ccccc2)C(c2cccc3cccnc23)N1c1ccc2[nH]cnc2c1 (stereo not shown) [Compound 267, 1-(1H-Benzoimidazol-5-yl)-3-hydroxy-4-phenyl-5-quinolin-8-yl-1,5-dihydro-pyrrol-2-one]
23 | 6610 | CCCC(=O)C1=C(O)C(=O)N(c2ccc3[nH]cnc3c2)C1CCC(=O)O (stereo not shown) [Compound 324, 3-[1-(1H-Benzoimidazol-5-yl)-3-butyryl-4-hydroxy-5-oxo-2,5-dihydro-1H-pyrrol-2-yl]-propionic acid]
24 | 5800 | Cn1cc(C2C(CC(=O)O)=C(O)C(=O)N2c2ccc3[nH]cnc3c2)c2ccccc21 (stereo not shown) [Compound 322, [1-(1H-Benzoimidazol-5-yl)-4-hydroxy-2-(1-methyl-1H-indol-3-yl)-5-oxo-2,5-dihydro-1H-pyrrol-3-yl]-acetic acid]
25 | 4900 | CCC1C(C)=C(O)C(=O)N1CCCn1ccnc1 (stereo not shown) [Compound 49, 5-Ethyl-3-hydroxy-1-(3-imidazol-1-yl-propyl)-4-methyl-1,5-dihydro-pyrrol-2-one]
26 | 2200 | CC(C)(C)C(=O)C1=C(O)C(=O)N(c2ccc3[nH]cnc3c2)C1c1cc[nH]n1 (stereo not shown) [Compound 405, 1-(1H-Benzoimidazol-5-yl)-4-(2,2-dimethyl-propionyl)-3-hydroxy-5-(1H-pyrazol-3-yl)-1,5-dihydro-pyrrol-2-one]
27 | 1840 | CCCC(=O)C1=C(O)C(=O)N(c2ccc3[nH]cnc3c2)C1C1CCOC1 (stereo not shown) [Compound 425, 1-(1H-Benzoimidazol-5-yl)-4-butyryl-3-hydroxy-5-(tetrahydro-furan-3-yl)-1,5-dihydro-pyrrol-2-one]
28 | 400 | CC1=C(O)C(=O)N(CCCn2ccnc2)C1c1ccc(C)c(C)c1 (stereo not shown) [Compound 29, 5-(3,4-Dimethyl-phenyl)-3-hydroxy-1-(3-imidazol-1-yl-propyl)-4-methyl-1,5-dihydro-pyrrol-2-one]
29 | 40 | Cc1cccc(C2C(C(=O)C3CC3)=C(O)C(=O)N2c2ccc3[nH]cnc3c2)c1 (stereo not shown) [Compound 260, 1-(1H-Benzoimidazol-5-yl)-4-cyclopropanecarbonyl-3-hydroxy-5-m-tolyl-1,5-dihydro-pyrrol-2-one]
30 | 40 | O=C1C(O)=C(c2ccccc2)C(c2ccccc2F)N1CCCn1ccnc1 (stereo not shown) [Compound 110, 5-(2-Fluoro-phenyl)-3-hydroxy-1-(3-imidazol-1-yl-propyl)-4-phenyl-1,5-dihydro-pyrrol-2-one]
31 | 40 | CCCCCC1=C(O)C(=O)N(CCCn2ccnc2)C1c1ccc(O)cc1 (stereo not shown) [Compound 218, 3-Hydroxy-5-(4-hydroxy-phenyl)-1-(3-imidazol-1-yl-propyl)-4-pentyl-1,5-dihydro-pyrrol-2-one]
